In ChEMBL document CHEMBL1201862, “PubChem BioAssay data set” (2004):
Calls of active or inactive are those of the source.

Columns and labels:
[1] = A549 cell cytotoxicity, dose response, cytotoxicity control, 24 h, CellTiter-Glo luminescence, cherry-picks (AID 1053115); format: functional, cell-based; conditions: A549, 24 h
[2] = P. falciparum Dd2 blood-stage growth inhibition, dose response, SYBR Green fluorescence, erythrocytes, dry powder, set 2 (AID 1159574); format: functional, cell-based
[3] = target: Transthyretin (Homo sapiens, UniProt P02766); test: Luminescence-based cell-based high throughput dose response assay to identify activators of Transthyretin (TTR) transcription.; format: functional
[4] = target: RNA-editing ligase 1, mitochondrial (Trypanosoma brucei brucei, UniProt P86926); test: TbREL1 ligase inhibitors, dose response, biochemical, fluorescence, Trypanosoma brucei (AID 1117295); format: functional
Sequence of RNA-editing ligase 1, mitochondrial (P86926 whole entry): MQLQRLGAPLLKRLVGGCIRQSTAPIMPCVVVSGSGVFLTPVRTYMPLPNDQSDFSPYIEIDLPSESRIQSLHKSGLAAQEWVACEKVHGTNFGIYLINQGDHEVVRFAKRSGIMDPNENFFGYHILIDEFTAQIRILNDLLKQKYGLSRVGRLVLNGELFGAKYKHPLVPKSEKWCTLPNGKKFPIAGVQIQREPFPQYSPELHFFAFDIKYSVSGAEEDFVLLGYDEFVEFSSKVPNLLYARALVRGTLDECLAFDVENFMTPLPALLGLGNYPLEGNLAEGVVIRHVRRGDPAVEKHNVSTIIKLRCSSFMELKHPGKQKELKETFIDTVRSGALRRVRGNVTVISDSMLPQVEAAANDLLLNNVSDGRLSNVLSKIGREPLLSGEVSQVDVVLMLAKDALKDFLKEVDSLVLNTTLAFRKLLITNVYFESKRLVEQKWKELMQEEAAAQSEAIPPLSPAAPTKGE

[5] = target: T1, Streptokinase A (Streptococcus pyogenes serotype M1, UniProt P10520); test: S. pyogenes streptokinase expression inhibitors, potency, dose response, plasminogen activation absorbance, OD405 (AID 1914); format: functional, Streptococcus pyogenes M1 GAS;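 note: secreted streptokinase activity via plasminogen activation per viability signal from cell pellet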
T1 sequence (P10520 whole entry): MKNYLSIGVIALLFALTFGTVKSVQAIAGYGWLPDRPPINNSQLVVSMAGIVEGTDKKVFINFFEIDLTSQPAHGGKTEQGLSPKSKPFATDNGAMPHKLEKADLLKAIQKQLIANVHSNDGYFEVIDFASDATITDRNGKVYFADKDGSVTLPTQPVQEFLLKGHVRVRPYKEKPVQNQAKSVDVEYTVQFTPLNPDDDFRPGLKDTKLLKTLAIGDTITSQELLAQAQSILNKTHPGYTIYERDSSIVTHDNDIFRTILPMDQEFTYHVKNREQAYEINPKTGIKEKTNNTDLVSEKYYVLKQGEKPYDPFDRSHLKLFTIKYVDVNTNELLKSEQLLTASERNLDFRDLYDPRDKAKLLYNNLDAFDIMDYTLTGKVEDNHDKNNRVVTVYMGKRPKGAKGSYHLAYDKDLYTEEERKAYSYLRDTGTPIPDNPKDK

[6] = inhibitors of SNCA 5'UTR-driven reporter translation, confirmation, H4 neuroglioma cells, luminescence (AID 1988); format: functional, cell-based
[7] = test system: Streptococcus sp. 'group A'; test: growth inhibition of control SK(-) GAS strain, dose response, counter-screen for streptokinase expression inhibitor project, luminescence, kanamycin, BacTiterGlo, confirmation (AID 1900); format: functional, organism-based
[8] = test system: Streptococcus; test: Group A Streptococcus viability loss, dose response, counter-screen for streptokinase expression inhibitor project, luminescence, BacTiterGlo (AID 1915); format: functional, organism-based;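 note: potency for reduction of bacterial viability or growth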
[9] = target: Heat shock protein HSP 90-alpha (Homo sapiens, UniProt P07900); format: functional, organism-based
[10] = Luminescence Cell-Based Dose Response HTS to Identify Inhibitors of 5'UTR Stem-Loop Driven Prion Protein mRNA Translation in H4 Neuroglioblastoma Cells. [Related pubchem assays: 1827 (Project Summary), 1813 (Primary HTS)]; format: functional
[11] = target: T2, Heat shock factor protein 1 (Mus musculus, UniProt P38532); test: HSF1 potentiators in luciferase reporter cells, confirmation, cell-based, NIH3T3, luminescence, dose retest (AID 435004); format: functional;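 note: stress induced by proteasome inhibitor MG132 added 30 min after compound; luciferase reporter driven by HSF1 response element in NIH3T3 cells; actives raise luminescence as potentiators of the MG132 stress response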
T2 sequence (P38532 whole entry): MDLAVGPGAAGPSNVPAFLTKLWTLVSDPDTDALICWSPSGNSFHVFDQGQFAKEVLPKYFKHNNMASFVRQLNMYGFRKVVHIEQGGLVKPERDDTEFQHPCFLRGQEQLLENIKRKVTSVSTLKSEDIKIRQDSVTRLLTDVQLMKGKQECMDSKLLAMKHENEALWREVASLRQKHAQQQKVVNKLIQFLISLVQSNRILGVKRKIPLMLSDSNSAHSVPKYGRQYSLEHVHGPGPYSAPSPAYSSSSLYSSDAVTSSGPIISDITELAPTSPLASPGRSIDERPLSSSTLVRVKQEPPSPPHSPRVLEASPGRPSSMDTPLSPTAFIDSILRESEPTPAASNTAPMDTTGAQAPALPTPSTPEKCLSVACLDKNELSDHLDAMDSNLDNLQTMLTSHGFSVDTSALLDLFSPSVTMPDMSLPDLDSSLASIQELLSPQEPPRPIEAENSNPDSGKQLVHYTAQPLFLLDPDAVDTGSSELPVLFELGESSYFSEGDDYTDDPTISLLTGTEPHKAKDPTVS

[12] = target: Ephrin type-A receptor 4 (Mus musculus, UniProt Q03137); test: inhibitors of EphA4 binding to KYL peptide, primary screen, biochemical, colorimetric, mouse EphA4 (AID 689); format: functional
Sequence of Ephrin type-A receptor 4 (Q03137 whole entry): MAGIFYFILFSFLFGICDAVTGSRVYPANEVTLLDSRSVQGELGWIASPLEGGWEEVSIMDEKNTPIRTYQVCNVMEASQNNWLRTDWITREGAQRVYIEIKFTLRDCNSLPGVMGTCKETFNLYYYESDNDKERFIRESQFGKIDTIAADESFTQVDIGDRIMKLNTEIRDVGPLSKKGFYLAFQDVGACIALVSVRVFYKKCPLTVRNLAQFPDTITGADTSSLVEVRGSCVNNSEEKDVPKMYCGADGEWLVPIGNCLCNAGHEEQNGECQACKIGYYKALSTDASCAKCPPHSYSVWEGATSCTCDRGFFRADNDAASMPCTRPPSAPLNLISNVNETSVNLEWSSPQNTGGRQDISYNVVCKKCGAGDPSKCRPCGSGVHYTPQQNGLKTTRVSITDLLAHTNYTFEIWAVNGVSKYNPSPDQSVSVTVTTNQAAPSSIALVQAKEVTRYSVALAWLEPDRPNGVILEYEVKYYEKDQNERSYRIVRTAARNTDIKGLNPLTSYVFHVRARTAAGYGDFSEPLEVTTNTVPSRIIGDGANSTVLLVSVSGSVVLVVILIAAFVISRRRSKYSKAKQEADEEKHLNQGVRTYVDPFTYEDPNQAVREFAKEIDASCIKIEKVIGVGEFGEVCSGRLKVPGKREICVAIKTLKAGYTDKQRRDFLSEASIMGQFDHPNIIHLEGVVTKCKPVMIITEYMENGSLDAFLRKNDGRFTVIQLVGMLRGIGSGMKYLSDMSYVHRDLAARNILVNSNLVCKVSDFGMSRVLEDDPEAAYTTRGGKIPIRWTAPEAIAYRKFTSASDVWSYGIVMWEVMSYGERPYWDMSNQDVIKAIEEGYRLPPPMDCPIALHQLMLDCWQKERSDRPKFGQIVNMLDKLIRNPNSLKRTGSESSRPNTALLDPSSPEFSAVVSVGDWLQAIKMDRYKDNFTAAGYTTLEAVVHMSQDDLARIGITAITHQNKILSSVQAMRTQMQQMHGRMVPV

[13] = test system: Vero; test: Vero cell cytotoxicity, cytotoxicity control for flavivirus capping enzyme inhibitors (AID 588742); format: functional; conditions: Chlorocebus sabaeus
[14] = Artemis endonuclease inhibitor potency, dose response, biochemical, fluorescence intensity (AID 720701); format: functional;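 note: Artemis endonuclease enzyme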
[15] = inhibitors of firefly luciferase expression or activity, dose response, H4 neuroglioma cells, luminescence (AID 1990); format: functional, cell-based
[16] = half-maximal inhibitory concentration for glucagon-like peptide-1 release, STC-1 cell line, dose-response (AID 1117345); format: functional, cell-based
[17] = Glucagon-like peptide 1 release potency, NCI-H716 cell line, dose-response, half-maximal inhibitory concentration (AID 1117344); format: functional, cell-based
[18] = target: Muscarinic acetylcholine receptor M5 (Rattus norvegicus, UniProt P08911); test: Discovery of Novel Antagonists of Muscarinic Receptor M5: Counterscreen against RAT M5.; format: functional
Sequence of Muscarinic acetylcholine receptor M5 (Rattus norvegicus, UniProt P08911) (P08911 whole entry): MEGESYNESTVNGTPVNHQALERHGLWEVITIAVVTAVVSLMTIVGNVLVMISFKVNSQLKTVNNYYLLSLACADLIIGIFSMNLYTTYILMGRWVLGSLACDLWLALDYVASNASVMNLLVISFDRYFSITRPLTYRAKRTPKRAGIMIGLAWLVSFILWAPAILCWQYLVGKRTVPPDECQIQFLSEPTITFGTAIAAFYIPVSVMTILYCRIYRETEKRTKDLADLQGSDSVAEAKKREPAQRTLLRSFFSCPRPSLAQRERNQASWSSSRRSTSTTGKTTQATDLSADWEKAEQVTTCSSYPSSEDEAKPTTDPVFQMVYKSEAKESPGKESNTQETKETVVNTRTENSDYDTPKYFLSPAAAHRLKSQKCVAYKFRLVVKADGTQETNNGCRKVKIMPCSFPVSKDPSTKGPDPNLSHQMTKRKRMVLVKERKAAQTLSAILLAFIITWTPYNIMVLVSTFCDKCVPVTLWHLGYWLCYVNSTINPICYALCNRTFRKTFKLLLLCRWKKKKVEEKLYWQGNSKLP

[19] = target: Muscarinic acetylcholine receptor M5 (Homo sapiens, UniProt P08912); test: M5 muscarinic receptor antagonist potency, dose response, cell-based, CHO-K1 hM5, Fluo-4 calcium flux, ACh EC80 (AID 743110); format: functional
Sequence of Muscarinic acetylcholine receptor M5 (Homo sapiens, UniProt P08912) (P08912 whole entry): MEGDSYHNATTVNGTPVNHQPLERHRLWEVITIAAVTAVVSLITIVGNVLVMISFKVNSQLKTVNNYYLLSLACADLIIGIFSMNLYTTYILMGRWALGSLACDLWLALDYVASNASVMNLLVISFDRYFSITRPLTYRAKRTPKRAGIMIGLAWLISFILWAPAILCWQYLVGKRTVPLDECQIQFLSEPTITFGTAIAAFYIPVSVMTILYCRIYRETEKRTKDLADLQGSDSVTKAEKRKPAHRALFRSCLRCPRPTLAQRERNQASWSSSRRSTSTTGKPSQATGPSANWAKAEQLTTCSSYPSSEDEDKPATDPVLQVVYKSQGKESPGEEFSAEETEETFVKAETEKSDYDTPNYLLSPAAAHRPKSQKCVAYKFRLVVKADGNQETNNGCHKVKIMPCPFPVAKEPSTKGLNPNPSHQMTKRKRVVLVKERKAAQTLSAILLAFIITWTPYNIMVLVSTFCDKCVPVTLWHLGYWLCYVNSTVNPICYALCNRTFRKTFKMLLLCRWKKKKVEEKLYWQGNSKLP

[20] = P. falciparum Dd2 growth inhibitors, dose response, SYBR Green, dry powder samples, set 4 (AID 1159572); format: functional, cell-based

**Q.** Which AC50 [1] does the source give for `CCCNC(=O)N(C)C[C@@H]1Oc2ncc(C#CC3CCCCC3)cc2C(=O)N([C@H](C)CO)C[C@@H]1C` here?
**A.** 59.7 µM (active)

**Q.** With `COc1cccc(C#Cc2ccc([C@H]3[C@H](CO)N4C(=O)CN(C(=O)Cc5ccccc5)C[C@@H]34)cc2)c1` as the molecule, how does the AC50 [2] read?
**A.** 10.5 µM (active)

**Q.** With `Cn1ncc(Br)c1C(=O)N1CCc2ccccc21` as the molecule, how does the EC50 [3] read?
**A.** > 167 µM (inactive)

**Q.** Which IC50 [4] does the source give for `COC(=O)C1=C(C)N(Cc2cccc(C(F)(F)F)c2)C(NCc2ccc3c(c2)OCO3)=NC1c1ccccc1C(F)(F)F` (stereo not given) here?
**A.** > 96.6 µM (inactive)

**Q.** For `O=C(/C=C/c1ccccc1)c1cc(Br)ccc(=O)c1O`, which EC50 [5] is on record?
**A.** > 150 µM (not active)

**Q.** And the EC50 [6]?
**A.** > 120 µM (not active)

**Q.** And the EC50 [7]?
**A.** 1.95 µM (active)

**Q.** And the EC50 [8]?
**A.** 7.42 µM (active)

**Q.** What about the AC50 [9] of the same molecule?
**A.** 3.01 µM (active)

**Q.** And the EC50 [10]?
**A.** > 120 µM (not active)

**Q.** And the EC50 [11]?
**A.** 15.9 µM (active)

**Q.** What about the IC50 [12] of the same molecule?
**A.** 17.3 µM (active)

**Q.** And the CC50 [13]?
**A.** 5.71 µM (active)

**Q.** And the IC50 [14]?
**A.** 19.1 µM (active)

**Q.** What about the EC50 [15] of the same molecule?
**A.** 11.6 µM (active)

**Q.** Which IC50 [16] does the source give for `Cc1cc(N)c2cc(NC(=O)Nc3ccc4nc(C)cc(N)c4c3)ccc2n1` here?
**A.** > 40 µM (inactive)

**Q.** And the IC50 [17]?
**A.** 34.2 µM (inactive)

**Q.** Which IC50 [18] does the source give for `CCN(C(=O)c1cc(COc2cccc(C(C)=O)c2)on1)C(C)c1ccccn1` (stereo not given) here?
**A.** 6.84 µM (active)

**Q.** What about the IC50 [19] of the same molecule?
**A.** 5.55 µM (active)

**Q.** For `COc1ccc(NC(=O)N2CCC3(CC2)CN(C(C)=O)[C@@H](CO)c2[nH]c4cc(OC)ccc4c23)cc1`, which AC50 [20] is on record?
**A.** 1.73 µM (active)
